Test results published in patent US20130053430A1, “MODULATION OF CETP EXPRESSION” (Isis Pharmaceuticals, Inc., priority 2010, published 2013).
e = 2'-O-(2-methoxyethyl) (MOE); d = 2'-deoxy (DNA)

Columns and labels:
human CETP mRNA = test: Antisense inhibition of human CETP mRNA in primary hepatocytes from huCETP transgenic mice (Example 4); type: cell-based, mouse; conditions: cytofectin, ~24 hours
Procedure, shortened: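 Primary hepatocytes from human CETP transgenic mice, 17,500 cells/well, transfected by cytofectin with 100 nM or 200 nM antisense oligonucleotide. After about 24 h, CETP mRNA quantified by real-time PCR, normalised to GAPDH, as percent inhibition versus untreated cells.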

[1] = Plasma glucose (Example 6); type: in vivo, mice; conditions: 50 mg/kg s.c. twice per week
Protocol: The normal chow-fed mice were divided into three treatment groups. The cholesterol-enriched chow-fed mice were divided into three treatment groups. […] One chow-fed group and one cholesterol-enriched chow-fed group received subcutaneous injections of saline twice weekly for 6 weeks. The saline-injected groups served as the control groups to which the corresponding oligonucleotide-treated groups were compared.
Plasma glucose values were determined using a Beckman Glucose Analyzer II (Beckman Coulter) by a glucose oxidase method (Lott, J. A. et al., Clin. Chem. 21: 1754-1760, 1975).

CETP mRNA = test: Dose response, liver CETP mRNA in huCETP transgenic mice on Western diet (Example 9); type: in vivo, human; conditions: s.c. 6 weeks
Protocol: Male transgenic mice were maintained on a 12-hour light/dark cycle and were fed ad libitum the Western diet (TD88137; 42% cal from fat, 0.2% cholesterol; Harlan Laboratories, Indianapolis, Ind.). Animals were acclimated for at least 7 days in the research facility before initiation of the experiment and were maintained on this diet throughout the study period. Antisense oligonucleotides (ASOs) were prepared in buffered saline (PBS) and sterilized by filtering through a 0.2 micron filter. Oligonucleotides were dissolved in 0.9% PBS for injection.
(§1) Another group received subcutaneous injections of control oligonucleotide ISIS 141923 at a dose of 50 mg/kg/week for 6 weeks. One group of mice received subcutaneous injections of PBS for 6 weeks. The PBS-injected group served as the control group to which treatment groups were compared.
Twenty four hours after the final dose, the animals were sacrificed and liver tissue was isolated. Liver RNA was isolated for real-time PCR analysis of CETP. The primer probe sets hCETP and hCETP2_LTS00182 were individually used to measure CETP levels. As presented in Table 43, treatment with ISIS 349517 reduced CETP mRNA expression in a dose-dependent manner. Both primer probe sets produced similar results. The RNA expression levels were normalized to murine Cyclophilin. The results are expressed as percent inhibition of CETP mRNA, relative to the PBS control.

ABCA1 = test: Liver ABCA1 mRNA expression (Example 9); type: in vivo, mice; conditions: percentage increase or decrease compared to PBS control, s.c. 6 weeks
Protocol: as §1
Liver RNA was isolated for real-time PCR analysis of ABCA1, ApoAI, and SR-B1. ATP-binding cassette transporter ABCA1 (member 1 of human transporter sub-family ABCA), also known as the cholesterol efflux regulatory protein (CERP) is a protein which in humans is encoded by the ABCA1 gene (Luciani, M. F. et al., Genomics. 1994. 21: 150-9). This transporter is a major regulator of cellular cholesterol and phospholipid homeostasis. Apolipoprotein A-I is a protein that in humans is encoded by the APOA1 gene (Breslow, J. L. et al., Proc. Natl. Acad. Sci. USA 1982. 79: 6861-5). Apolipoprotein A-I is the major protein component of HDL in plasma. The protein promotes cholesterol efflux from tissues to the liver for excretion. Scavenger receptor class B, type I (SR-BI) is an integral membrane protein found in numerous cell types/tissues, including the liver and adrenal (Acton, S. L. et al., J. Biol. Chem. 1994. 269: 21003-21009). It is best known for its role in facilitating the uptake of cholesteryl esters from high-density lipoproteins in the liver. Therefore, all three genes have a role in HDL regulation.
The primer probe set RTS1204 (forward sequence […], designated herein as SEQ ID NO: 122, reverse sequence […], designated herein as SEQ ID NO: 123, probe sequence AGGCCCAGACCTGTAAAGGCGAAGX, with X a fluorophore, designated herein as SEQ ID NO: 124) was used to measure abca1 levels. The primer probe set RTS14737 (forward sequence […], designated herein as SEQ ID NO: 125, reverse sequence […], designated herein as SEQ ID NO: 126, probe sequence CTGCAGGAACGGCTGGGCCCX, with X a fluorophore, designated herein as SEQ ID NO: 127) was used to measure apoA1 levels. The primer probe set mSRB-1 (forward sequence […], designated herein as SEQ ID NO: 128, reverse sequence ATGCGACTTGTCAGGCTGG, designated herein as SEQ ID NO: 129, probe sequence CGTGGAGAACCGCAGCCTCCATTX, with X a fluorophore, designated herein as SEQ ID NO: 130) was used to measure sr-b1 levels. The results are presented in Table 44 as percentage increase or decrease in the respective expression levels compared to the PBS control. Both primer probe sets produced similar results. The RNA expression levels were normalized to murine Cyclophilin. Treatment with ISIS 349517 caused an increase in ApoA1 and SR-B1 levels.

Substance | Percent inhibition of human CETP mRNA (human CETP mRNA; 100 nM) [%] | Percent inhibition of human CETP mRNA (human CETP mRNA; 200 nM) [%] | Glucose levels ([1]; Cholesterol chow, Week 0) [mg/dL] | Glucose levels ([1]; Cholesterol chow, Week 3) [mg/dL] | Glucose levels ([1]; Cholesterol chow, Week 6) [mg/dL] | Glucose levels ([1]; Normal chow, Week 0) [mg/dL] | Glucose levels ([1]; Normal chow, Week 3) [mg/dL] | Glucose levels ([1]; Normal chow, Week 6) [mg/dL] | Percent inhibition of liver CETP mRNA expression, PPset hCETP (CETP mRNA; Dose 1.5 mg/kg/wk) [%] | Percent inhibition of liver CETP mRNA expression, PPset hCETP2_LTS00182 (CETP mRNA; Dose 1.5 mg/kg/wk) [%] | Percent inhibition of liver CETP mRNA expression, PPset hCETP (CETP mRNA; Dose 5 mg/kg/wk) [%] | Percent inhibition of liver CETP mRNA expression, PPset hCETP2_LTS00182 (CETP mRNA; Dose 5 mg/kg/wk) [%] | Percent inhibition of liver CETP mRNA expression, PPset hCETP (CETP mRNA; Dose 15 mg/kg/wk) [%] | Percent inhibition of liver CETP mRNA expression, PPset hCETP2_LTS00182 (CETP mRNA; Dose 15 mg/kg/wk) [%] | Percent inhibition of liver CETP mRNA expression, PPset hCETP (CETP mRNA; Dose 50 mg/kg/wk) [%] | Percent inhibition of liver CETP mRNA expression, PPset hCETP2_LTS00182 (CETP mRNA; Dose 50 mg/kg/wk) [%] | Percent inhibition of liver mRNA expression, ABCA1 (ABCA1; Dose 1.5 mg/kg/wk) | Percent inhibition of liver mRNA expression, ABCA1 (ABCA1; Dose 5 mg/kg/wk) | Percent inhibition of liver mRNA expression, ABCA1 (ABCA1; Dose 15 mg/kg/wk) [%] | Percent inhibition of liver mRNA expression, ABCA1 (ABCA1; Dose 50 mg/kg/wk)
ISIS 349511: 5-10-5 MOE gapmer CCCGACCTCCTTGGAGACTT (sugars from the 5' end e5 d10 e5, backbone and methylation of C not given here) | 74 | 95 | 238 | 289 | 225 | 239 | 288 | 206 |  |  |  |  |  |  |  |  |  |  |  | 
ISIS 349517: 5-10-5 MOE gapmer CAGCACTTTAATGCCAGTGG (sugars from the 5' end e5 d10 e5, backbone and methylation of C not given here) | 85 | 98 | 277 | 245 | 240 | 263 | 257 | 211 | 59 | 59 | 87 | 87 | 91 | 95 | 92 | 96 | +6% | +15% | −6 | −15%
ISIS 141923: CCTTCCCTGAAGGTTCCTCC, 5-10-5 MOE gapmer, a control oligonucleotide which has no known murine target (sugars from the 5' end e5 d10 e5, backbone and methylation of C not given here) [reference compound] |  |  |  |  |  |  |  |  |  |  |  |  |  |  | 0 | 0 |  |  |  | +16%
